# Molecular target: T1, human PAH with the R408W mutation (Homo sapiens, UniProt P00439, R408W)
# T1 construct: expressed in transfected cells
# T1 sequence (P00439 1-452 R408W): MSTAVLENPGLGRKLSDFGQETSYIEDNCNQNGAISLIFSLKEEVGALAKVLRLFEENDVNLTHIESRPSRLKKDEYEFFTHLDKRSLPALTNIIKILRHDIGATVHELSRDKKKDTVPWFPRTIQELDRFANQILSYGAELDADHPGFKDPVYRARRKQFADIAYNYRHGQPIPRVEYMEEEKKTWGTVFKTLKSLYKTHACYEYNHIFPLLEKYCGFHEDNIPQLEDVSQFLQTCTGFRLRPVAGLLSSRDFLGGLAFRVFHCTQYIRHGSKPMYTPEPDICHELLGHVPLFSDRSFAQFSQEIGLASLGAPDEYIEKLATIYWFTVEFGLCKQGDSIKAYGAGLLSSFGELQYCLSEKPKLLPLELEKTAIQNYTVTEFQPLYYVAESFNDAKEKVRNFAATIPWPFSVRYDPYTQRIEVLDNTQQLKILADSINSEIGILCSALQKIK
# Test: Cell Based Phenylalanine Flux Assay;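 also: after compound treatment, cells received sepiapterin plus isotope-labelled Phenylalanine for 4 hours, then labelled Tyrosine in the medium was quantified, 10-point 2-fold dilution series run in duplicate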
# Conditions: A375 cells expressing R408W PAH; 24 hrs with compound, then 20 µM sepiapterin and 800 µM 13C9,15N-Phenylalanine for 4 hours; 13C-Tyrosine by LC-MS; average where tested multiple times; read-out: AC50
row,Structure (SMILES),AC50 [nM]
1,Fc1cccn2nc(C3c4nc[nH]c4CCN3c3nnc(N4CCOCC4)o3)cc12 (stereo not shown),1000 to 5000
2,COc1cccn2nc(C3c4nc[nH]c4CCN3C(=O)c3cnn4cc(-c5cnn(C)c5)ccc34)cc12 (stereo not shown),> 5000
3,Cc1nc(C(C)O)oc1C(=O)N1CCc2[nH]cnc2C1c1cc2cccc(Cl)n2n1 (stereo not shown),1000 to 5000
4,FC(F)c1cccc2cc(C3c4nc[nH]c4CCN3c3nnc(C4CC4)o3)nn12 (stereo not shown),1000 to 5000
5,CC(C)(C)c1nnc(C(=O)N2CCc3[nH]cnc3C2c2cc3ccc(C(F)(F)F)cn3n2)o1 (stereo not shown),1000 to 5000
6,"CN(C)Cc1ccc2c(C(=O)N3CCc4[nH]cnc4C3c3cc4ccccn4n3)cnn2c1 (single isomer, unassigned)",1000 to 5000

# Same assay, conditions: A375 cells expressing human PAH R408W; 24 hrs compound incubation; 13C-Tyrosine by LC-MS; average where tested multiple times; read-out: AC50
row,Structure (SMILES),AC50 [nM]
1,"Cc1cccnc1-c1nnc(N2CCc3[nH]cnc3[C@H]2c2cc3c(F)cccn3n2)o1 [Example 2280, (S)-2-(4-(4-fluoropyrazolo[1,5-a]pyridin-2-yl)-1,4,6,7-tetrahydro-5H-imidazo[4,5-c]pyridin-5-yl)-5-(3-methylpyridin-2-yl)-1,3,4-oxadiazole]",< 500
2,"Cn1cc(-c2nnc(C(=O)N3CCc4[nH]cnc4[C@H]3c3cc4c(Br)cccn4n3)o2)cn1 [Example 1868, (S)-(4-(4-bromopyrazolo[1,5-a]pyridin-2-yl)1,4,6,7-tetrahydro-5H-imidazo[4,5-c]pyridin-5-yl)(5-(1-methyl-1H-pyrazol-4-yl)-1,3,4-oxadiazol-2-yl)methanone]",< 500
3,"FC(F)(F)c1cccn2nc([C@H]3c4nc[nH]c4CCN3c3cnccn3)cc12 [Example 1818, (R)-5-(pyrazin-2-yl)-4-(4-(trifluoromethyl)pyrazolo[1,5-a]pyridin-2-yl)-4,5,6,7-tetrahydro-1H-imidazo[4,5-c]pyridine]",> 5000
4,"FC(F)c1nnc(N2CCc3[nH]cnc3[C@H]2c2cc3ccccn3n2)o1 [Example 2461, (S)-2-(difluoromethyl)-5-(4-(pyrazolo[1,5-a]pyridin-2-yl)-6,7-dihydro-1H-imidazo[4,5-c]pyridin-5(4H)-yl)-1,3,4-oxadiazole]",1000 to 5000

# Same assay, conditions: A375 cells expressing human R408W PAH; 24 hrs compound incubation; 13C-Tyrosine by LC-MS; average where tested multiple times; read-out: AC50
row,Structure (SMILES),AC50 [nM]
1,"O=C(c1oc(-c2ccccn2)nc1C(F)F)N1CCc2[nH]cnc2[C@H]1c1cc2ccccn2n1 [Example 644, (S)-(4-(difluoromethyl)-2-(pyridin-2-yl)oxazol-5-yl)(4-(pyrazolo[1,5-a]pyridin-2-yl)-6,7-dihydro-1H-imidazo[4,5-c]pyridin-5(4H)-yl)methanone]",< 500
2,"CC1(c2nnc(C(=O)N3CCc4[nH]cnc4[C@H]3c3cc4c(Cl)cccn4n3)o2)CC1 [Example 1321, (S)-(4-(4-chloropyrazolo[1,5-a]pyridin-2-yl)-6,7-dihydro-1H-imidazo[4,5-c]pyridin-5(4H)-yl)(5-(1-methylcyclopropyl)-1,3,4-oxadiazol-2-yl)methanone]",< 500
3,"Cc1cccn2nc([C@H]3c4nc[nH]c4CCN3C(=O)c3nnc(N4CCC(F)CC4)o3)cc12 [Example 1013, (R)-(5-(4-fluoropiperidin-1-yl)-1,3,4-oxadiazol-2-yl)(4-(4-methylpyrazolo[1,5-a]pyridin-2-yl)-6,7-dihydro-1H-imidazo[4,5-c]pyridin-5(4H)-yl)methanone]",> 5000
4,"CN(C)c1ccc2c(C(=O)N3CCc4[nH]cnc4[C@H]3c3cc4c(Cl)cccn4n3)cnn2c1 [Example 1792, (S)-(4-(4-chloropyrazolo[1,5-a]pyridin-2-yl)-6,7-dihydro-1H-imidazo[4,5-c]pyridin-5(4H)-yl)(6-(dimethylamino)pyrazolo[1,5-a]pyridin-3-yl)methanone]",< 500
5,"Cc1nn(C)cc1-c1nnc(C(=O)N2CCc3[nH]cnc3[C@@H]2c2cc3c(C)cccn3n2)o1 [Example 845, (R)-(5-(1,3-dimethyl-1H-pyrazol-4-yl)-1,3,4-oxadiazol-2-yl)(4-(4-methylpyrazolo[1,5-a]pyridin-2-yl)-6,7-dihydro-1H-imidazo[4,5-c]pyridin-5(4H)-yl)methanone]",> 5000
6,"O=C(c1ocnc1C1CC1)N1CCc2[nH]cnc2[C@H]1c1cc2ccccn2n1 [Example 618, (S)-(4-cyclopropyloxazol-5-yl)(4-(pyrazolo[1,5-a]pyridin-2-yl)-6,7-dihydro-1H-imidazo[4,5-c]pyridin-5(4H)-yl)methanone]",< 500
7,"O=C(c1cnn2cc(N3CCOCC3)ccc12)N1CCc2[nH]cnc2[C@H]1c1cc2c(C(F)(F)F)cccn2n1 [Example 1614, (S)-(6-morpholinopyrazolo[1,5-a]pyridin-3-yl)(4-(4-(trifluoromethyl)pyrazolo[1,5-a]pyridin-2-yl)-6,7-dihydro-1H-imidazo[4,5-c]pyridin-5(4H)-yl)methanone]",500 to 1000
8,"Cc1c(-c2nnc(C(=O)N3CCc4[nH]cnc4[C@@H]3c3cc4ccccn4n3)o2)cnn1C [Example 973, (R)-(5-(1,5-dimethyl-1H-pyrazol-4-yl)-1,3,4-oxadiazol-2-yl)(4-(pyrazolo[1,5-a]pyridin-2-yl)-6,7-dihydro-1H-imidazo[4,5-c]pyridin-5(4H)-yl)methanone]",> 5000
9,"O=C(c1nnc(-c2cc(C(F)(F)F)ccn2)o1)N1CCc2[nH]cnc2[C@H]1c1cc2ccccn2n1 [Example 669, (S)-(4-(pyrazolo[1,5-a]pyridin-2-yl)-6,7-dihydro-1H-imidazo[4,5-c]pyridin-5(4H)-yl)(5-(4-(trifluoromethyl)pyridin-2-yl)-1,3,4-oxadiazol-2-yl)methanone]",< 500
10,"Clc1cccn2nc([C@H]3c4nc[nH]c4CCN3c3ncccn3)cc12 [Example 1665, (R)-4-(4-chloropyrazolo[1,5-a]pyridin-2-yl)-5-(pyrimidin-2-yl)-4,5,6,7-tetrahydro-1H-imidazo[4,5-c]pyridine]",1000 to 5000
11,"Cc1cccc(-c2nnc(C(=O)N3CCc4[nH]cnc4[C@@H]3c3cc4c(C(F)(F)F)cccn4n3)o2)n1 [Example 1432, (R)-(5-(6-methylpyridin-2-yl)-1,3,4-oxadiazol-2-yl)(4-(4-(trifluoromethyl)pyrazolo[1,5-a]pyridin-2-yl)-6,7-dihydro-1H-imidazo[4,5-c]pyridin-5(4H)-yl)methanone]",1000 to 5000
12,"COc1cccn2nc([C@@H]3c4nc[nH]c4CCN3C(=O)c3nnc(-c4ccccn4)o3)cc12 [Example 779, (S)-(4-(4-methoxypyrazolo[1,5-a]pyridin-2-yl)-6,7-dihydro-1H-imidazo[4,5-c]pyridin-5(4H)-yl)(5-(pyridin-2-yl)-1,3,4-oxadiazol-2-yl)methanone]",500 to 1000
13,"Cn1cc(-c2nnc(C(=O)N3CCc4[nH]cnc4[C@@H]3c3cc4c(C(F)(F)F)cccn4n3)o2)cn1 [Example 829, (R)-(5-(1-methyl-1H-pyrazol-4-yl)-1,3,4-oxadiazol-2-yl)(4-(4-(trifluoromethyl)pyrazolo[1,5-a]pyridin-2-yl)-6,7-dihydro-1H-imidazo[4,5-c]pyridin-5(4H)-yl)methanone]",> 5000
14,"O=C(c1nnc(-c2cccnc2)o1)N1CCc2[nH]cnc2[C@@H]1c1cc2cccc(C(F)F)n2n1 [Example 1469, (R)-(4-(7-(difluoromethyl)pyrazolo[1,5-a]pyridin-2-yl)-6,7-dihydro-1H-imidazo[4,5-c]pyridin-5(4H)-yl)(5-(pyridin-3-yl)-1,3,4-oxadiazol-2-yl)methanone]",> 5000
15,"O=C(c1nnc(C2CCC2)o1)N1CCc2[nH]cnc2[C@H]1c1cc2cccc(Cl)n2n1 [Example 1561, (S)-(4-(7-chloropyrazolo[1,5-a]pyridin-2-yl)-6,7-dihydro-1H-imidazo[4,5-c]pyridin-5(4H)-yl)(5-cyclobutyl-1,3,4-oxadiazol-2-yl)methanone]",< 500

# — patent US20230365592A1 (Agios Pharmaceuticals, Inc., priority 2022, published 2023)
